Marks after values point to notes of the source that are not given here.
Experiments:
[1] = system: men with androgen-independent prostate cancer; experiment: Docetaxel-induced peripheral neuropathy by ABCB1 2677 genotype; format: in vivo, human; details: docetaxel 30 mg/m2 iv weekly for 3 consecutive weeks
Description: (§1) ABCB1 genotypes were evaluated in patients from a trial involving 73 men with androgen-independent prostate cancer that were treated with either docetaxel alone or docetaxel in combination with thalidomide. Patients were administered docetaxel intravenously (30 mg/m2) over 1 hour every week for 3 consecutive weeks (n=23). Some patients additionally received 200 mg of thalidomide orally each day (n=50). Toxicity was defined by Cancer Therapy Evaluation Program/National Cancer Institute Common Toxicity Criteria (version 2.0) and patients were evaluated for symptoms of toxicity weekly.

[2] = system: men with androgen-independent prostate cancer; experiment: Clinical grade of neutropenia in docetaxel-treated patients by ABCB1 genotype; format: in vivo, human
Description: as §1

[3] = system: subjects with locally advanced or metastatic cancer; experiment: Cumulative peripheral neuropathy (clinical score >3) during weekly paclitaxel therapy by ABCB1 genotype; format: in vivo, human; details: weekly paclitaxel 100 mg/m^2, 12 weeks
Excerpt: Twenty-six subjects were examined.
Prior to therapy, and if possible after six and twelve weeks of therapy, these examinations were supplemented by the evaluation of the peripheral neuropathy score, clinical chemistries (serum creatinine, transaminases, alkaline phosphatase, and bilirubin), electrocardiogram analysis and performance status. For the assessment of neurotoxicity a standardized clinical peripheral neuropathy scoring system was used, which included questioning subjects' symptoms, requiring a clinical examination based on a tuning fork test, and an evaluation of strength and peripheral reflexes. This individual clinical score could range from 0 (best) to 12 (worst) points, and based on the inclusion criteria of this trial, peripheral neuropathy was defined as an event when the score exceeded a value of 3 for the first time. A score had to be obtained, at a minimum, prior to and after six and twelve weeks of therapy in order for subjects to be included.
The probability of development of a peripheral neuropathy during paclitaxel therapy as a function of time, according to various genotypes, was analyzed using the Kaplan-Meier method. Statistical significance of the differences between Kaplan-Meier curves was determined using an exact log rank test. […]

[4] = system: subjects with locally advanced or metastatic cancer; details: both, human, in vivo
Description: (§2) Twenty-six subjects were examined. There were 14 male subjects and 12 female subjects with a median age of 59.5 years (range: 42-72). The subjects were treated with weekly one- or three-hour paclitaxel infusions. All subjects had histologically proven, locally advanced or metastatic cancer, for which paclitaxel as monotherapy was a therapeutic option.
(§3) Paclitaxel (30 mg) formulated in a mixture of Cremophor and absolute:ethanol (1:1, vol/vol) (Bristol Myers Squibb, Munich, Germany) was diluted in 500 mL of 5% (weight/vol) dextrose in water and administered to subjects via a peripheral or central venous catheter using a motor-driven programmable infusion pump. Eligible subjects were randomized between a one hour and three hour infusion duration to receive a total of six weekly intravenous infusions of paclitaxel at a dose of 100 mg/m^2. After six weeks of therapy (defined as one cycle) response was evaluated bi-dimensionally, usually by computed tomography. Subjects with a stable disease, partial response or complete response after one cycle received a second cycle, provided toxic effects were not prohibitive.
All data are reported as median values with the associated 95% CI, unless specified otherwise.

[5] = Paclitaxel pharmacokinetics in plasma of treated subjects by ABCB1 genotype; details: for AUCp, area under the curve of total paclitaxel, Median (95% CI) / AUCu, area under the curve of unbound paclitaxel, Median (95% CI) / T > 0.05 μM, duration of total plasma concentration of paclitaxel exceeding 0.05 μM, Median (95% CI): 100 mg/m^2 iv infusion, first administration
Description: as §2, §3
Blood samples were obtained from the subjects described in Example 1 during the first paclitaxel administration at baseline and at serial time points during and after infusion. Concentrations of total paclitaxel in plasma were determined by a validated method based on reversed-phase high performance liquid chromatography with ultraviolet detection, while unbound paclitaxel plasma concentrations were determined by micro-equilibrium dialysis using a [G-^3H]paclitaxel tracer. Pertinent pharmacokinetic parameters were calculated by non-compartmental methods using WinNonlin® version 5.0 (Pharsight, Mountain View, Calif., USA).
All data are reported as median values with the associated 95% CI, unless specified otherwise. Interindividual pharmacokinetic variability was assessed as the coefficient of variation, and expressed as a percentage. The associations of the variant genotypes with individual pharmacokinetic parameters were evaluated statistically with the nonparametric Kruskal-Wallis test. All P values are two-tailed, and those less than or equal to 0.05 were considered to reflect statistically significant results.

[6] = of the 15 subjects wild-type for ABCB1 2677G>T/A
[7] = subjects carrying at least one variant allele at ABCB1 2677
[8] = genotype 2677TT + 3435TT, 11 patients in total
[9] = other ABCB1 genotypes, 39 patients in total
[10] = ABCB1 1236C>T heterozygous (N=17)
[11] = ABCB1 1236C>T variant (N=4), range quoted instead of 95% CI
[12] = ABCB1 1236C>T wild-type (N=5), range quoted instead of 95% CI
[13] = ABCB1 2677G>T heterozygous (N=13)
[14] = ABCB1 2677G>T wild-type (N=2), range quoted instead of 95% CI
[15] = ABCB1 3435C>T heterozygous (N=14)
[16] = ABCB1 3435C>T wild-type (N=4), range quoted instead of 95% CI

CC(=O)O[C@@]12CO[C@@H]1C[C@H](O)[C@@]1(C)C(=O)[C@H](O)C3=C(C)[C@@H](OC(=O)[C@H](O)[C@@H](NC(=O)OC(C)(C)C)c4ccccc4)C[C@@](O)([C@@H](OC(=O)c4ccccc4)[C@H]21)C3(C)C [docetaxel, (2R,3S)—N-carboxy-3-phenylisoserine,N-tert-butyl ester, 13-ester with 5β-20-epoxy-1,2α,4,7β,10β,13α-hexahydroxytax-11-en-9-one 4-acetate 2-benzoate, trihydrate]
subjects who developed peripheral neuropathy during the observation period [1, 6]: 11 subjects | subjects who did not develop peripheral neuropathy during the observation period [1, 6]: 4 subjects | subjects who developed peripheral neuropathy during the observation period [1, 7]: 32 of 35 | subjects who did not develop peripheral neuropathy during the observation period [1, 7]: 3 of 35 | # Patients with Clinical Grade of Neutropenia, Grade 0 [2, 8]: 8 patients | # Patients with Clinical Grade of Neutropenia, Grade 2 [2, 8]: 0 patients | # Patients with Clinical Grade of Neutropenia, Grade 3 [2, 8]: 3 patients | # Patients with Clinical Grade of Neutropenia, Grade 0 [2, 9]: 35 patients | # Patients with Clinical Grade of Neutropenia, Grade 2 [2, 9]: 3 patients | # Patients with Clinical Grade of Neutropenia, Grade 3 [2, 9]: 1 patients

CC(=O)O[C@H]1C(=O)[C@@]2(C)[C@H]([C@H](OC(=O)c3ccccc3)[C@]3(O)C[C@H](OC(=O)[C@H](O)[C@@H](NC(=O)c4ccccc4)c4ccccc4)C(C)=C1C3(C)C)[C@]1(OC(C)=O)CO[C@@H]1C[C@@H]2O [paclitaxel, 5β,20-Epoxy-1,2α,4,7β,10β,13α-hexahydroxytax-11-en-9-one 4,10-diacetate 2-benzoate 13-ester with (2R,3S)—N-benzoyl-3-phenylisoserine]
development of peripheral neuropathy during the observation period ([3]; four subjects wild-type for ABCB1 3435C>T (3435CC)): did not develop peripheral neuropathy | subjects who developed peripheral neuropathy ([3]; subjects carrying at least one variant allele at ABCB1 3435 (CT or TT)): 17 of 18 | fold greater percent decrease in neutrophil count at nadir, double variant versus rest of the population [4]: approximately 1.5 fold | association of ABCB1 genotypes with paclitaxel pharmacokinetic parameters ([5]; 26 subjects, ABCB1 1236C>T, 2677G>T, 3435C>T, Kruskal-Wallis test): none of the studied ABCB1 genotypes were associated with interindividual differences | AUCp, area under the curve of total paclitaxel, Median (95% CI) [5, 10]: 5264 (3879-6235) (ng/mL) × hr | AUCu, area under the curve of unbound paclitaxel, Median (95% CI) [5, 10]: 470 (445-519) (ng/mL) × hrs | T > 0.05 μM, duration of total plasma concentration of paclitaxel exceeding 0.05 μM, Median (95% CI) ([5]; ABCB1 1236C>T heterozygous (N=17, one patient without data)): 15.6 (9.3-19.3)* hours | AUCp, area under the curve of total paclitaxel, Median (95% CI) [5, 11]: 3547 (2309-5600) (ng/mL) × hr | AUCu, area under the curve of unbound paclitaxel, Median (95% CI) [5, 11]: 407 (362-522) (ng/mL) × hrs | T > 0.05 μM, duration of total plasma concentration of paclitaxel exceeding 0.05 μM, Median (95% CI) [5, 11]: 15.6 (8.8-24.9) hours | AUCp, area under the curve of total paclitaxel, Median (95% CI) [5, 12]: 4657 (2909-9916) (ng/mL) × hr | T > 0.05 μM, duration of total plasma concentration of paclitaxel exceeding 0.05 μM, Median (95% CI) [5, 12]: 20.3 (8.8-34.2) hours | AUCp, area under the curve of total paclitaxel, Median (95% CI) [5, 13]: 5146 (3776-7762) (ng/mL) × hr | AUCu, area under the curve of unbound paclitaxel, Median (95% CI) [5, 13]: 482 (371-641) (ng/mL) × hrs | T > 0.05 μM, duration of total plasma concentration of paclitaxel exceeding 0.05 μM, Median (95% CI) ([5]; ABCB1 2677G>T heterozygous (N=13, one patient without data)): 17.3 (9.6-20.7)* hours | AUCp, area under the curve of total paclitaxel, Median (95% CI) ([5]; ABCB1 2677G>T variant (N=11)): 4203 (2309-5600) (ng/mL) × hr | AUCu, area under the curve of unbound paclitaxel, Median (95% CI) ([5]; ABCB1 2677G>T variant (N=11)): 445 (362-516) (ng/mL) × hrs | T > 0.05 μM, duration of total plasma concentration of paclitaxel exceeding 0.05 μM, Median (95% CI) ([5]; ABCB1 2677G>T variant (N=11)): 12.6 (8.8-19.8) hours | AUCp, area under the curve of total paclitaxel, Median (95% CI) [5, 14]: 3348 (2909-3787) (ng/mL) × hr | AUCu, area under the curve of unbound paclitaxel, Median (95% CI) [5, 14]: 540 (507-572) (ng/mL) × hrs | T > 0.05 μM, duration of total plasma concentration of paclitaxel exceeding 0.05 μM, Median (95% CI) [5, 14]: 15.1 (8.8-21.3) hours | AUCp, area under the curve of total paclitaxel, Median (95% CI) [5, 15]: 5485 (3787-6344) (ng/mL) × hr | AUCu, area under the curve of unbound paclitaxel, Median (95% CI) [5, 15]: 512 (432-523) (ng/mL) × hrs | T > 0.05 μM, duration of total plasma concentration of paclitaxel exceeding 0.05 μM, Median (95% CI) ([5]; ABCB1 3435C>T heterozygous (N=14, one patient without data)): 19.8 (10.5-21.3)* hours | AUCp, area under the curve of total paclitaxel, Median (95% CI) ([5]; ABCB1 3435C>T variant (N=8)): 3656 (2259-5600) (ng/mL) × hr | AUCu, area under the curve of unbound paclitaxel, Median (95% CI) ([5]; ABCB1 3435C>T variant (N=8)): 448 (362-522) (ng/mL) × hrs | T > 0.05 μM, duration of total plasma concentration of paclitaxel exceeding 0.05 μM, Median (95% CI) ([5]; ABCB1 3435C>T variant (N=8)): 13.7 (8.7-18.9) hours | AUCp, area under the curve of total paclitaxel, Median (95% CI) [5, 16]: 4534 (2909-5146) (ng/mL) × hr | AUCu, area under the curve of unbound paclitaxel, Median (95% CI) [5, 16]: 420 (313-572) (ng/mL) × hrs

Source: patent US8835115B2, “ABCB1 genotyping to predict microtubule-stabilizing-agent-induced toxicity” (The United States of America as represented by the …, priority 2006, dated 2014)
